# Where a name gives a salt, the structure may show the parent alone.
# Columns and labels:
# [1] = molecular target: T1, recombinant human LTA4 hydrolase (rhLTA4H) (Homo sapiens, UniProt P09960); assay: Recombinant human LTA4 hydrolase assay for LTA4 hydrolase inhibitor activity; format: biochemical; conditions: rhLTA4H, LTB4 by immunoassay; single determination or average of two or more; mark after value = form tested: ′ free base, ″ hydrochloride, ^ formate; read-out: IC50
# T1 construct: made in house; host or cells: Spodoptera frugiperda (Sf-9) cells, baculovirus (pFastBac1)
# T1 sequence (P09960 1-611): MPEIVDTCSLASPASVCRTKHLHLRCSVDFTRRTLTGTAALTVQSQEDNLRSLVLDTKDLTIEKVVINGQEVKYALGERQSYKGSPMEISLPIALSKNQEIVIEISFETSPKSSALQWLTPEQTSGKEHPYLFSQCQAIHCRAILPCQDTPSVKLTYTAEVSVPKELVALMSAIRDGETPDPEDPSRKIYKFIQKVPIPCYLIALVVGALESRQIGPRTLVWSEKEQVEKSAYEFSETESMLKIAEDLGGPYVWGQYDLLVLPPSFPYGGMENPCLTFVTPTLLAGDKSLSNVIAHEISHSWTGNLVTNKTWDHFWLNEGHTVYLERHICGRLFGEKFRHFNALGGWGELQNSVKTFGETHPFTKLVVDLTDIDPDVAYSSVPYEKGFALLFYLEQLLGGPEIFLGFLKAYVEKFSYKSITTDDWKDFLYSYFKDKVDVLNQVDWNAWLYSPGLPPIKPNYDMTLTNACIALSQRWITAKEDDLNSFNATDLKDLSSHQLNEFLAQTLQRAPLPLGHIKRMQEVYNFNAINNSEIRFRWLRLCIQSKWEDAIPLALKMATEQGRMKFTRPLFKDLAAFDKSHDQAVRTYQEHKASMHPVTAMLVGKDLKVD
# In short: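 Baculovirus/Sf-9-expressed human LTA4H (10 ng) was preincubated 10 min at rt with compound in assay buffer (10% DMSO in compound dilution), then reacted 30 min at rt with LTA4 free acid made from its methyl ester. LTB4 produced was measured by ELISA after dilution; IC50 from non-linear regression, single or averaged determinations.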
# [2] = tested on: LTB4 production in murine blood (LTA4H); assay: LTB4 production by calcium ionophore-stimulated murine blood for LTA4H inhibitor activity; format: cell-based, CD-1 mice; conditions: Mus musculus; murine blood diluted 1 in 15, A23187 stimulated; single determination or average; mark after value = form tested: ′ free base, ″ hydrochloride, ^ formate; read-out: IC50
# In short: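 Heparinized blood from CD-1 mice was preincubated with compound for 15 min at 37° C, then stimulated with calcium ionophore A23187 (final 7 μg/mL) for 30 min. Centrifugation stopped the reaction, and LTB4 in the supernatant was measured by enzyme immunoassay. Values are single determinations or means of two or more.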
IC50 [1] [nM],IC50 [2] [nM],Structure (SMILES)
47,690,"O=C1Cc2cc(F)ccc2N1Cc1coc2cc(Oc3nc4ncccc4s3)ccc12 [Example 403, 5-Fluoro-1-[6-(thiazolo[4,5-b]pyridin-2-yloxy)-benzofuran-3-ylmethyl]-1,3-dihydro-indol-2-one]"
28,739,"NC1CCN(Cc2c[nH]c3cc(Oc4nc5ccccc5s4)ccc23)CC1 [Example 50, 1-[6-(Benzothiazol-2-yloxy)-1H-indol-3-ylmethyl]-piperidin-4-ylamine 2HCl]"
19,170,"c1ccc(N2CCN(Cc3coc4cc(Oc5nc6ncccc6s5)ccc34)CC2)nc1 [Example 288, 2-[3-(4-Pyridin-2-yl-piperazin-1-ylmethyl)-benzofuran-6-yloxy]-thiazolo[4,5-b]pyridine formate]"
15,85,"CN(Cc1ccccc1)Cc1cc2cc(Oc3nc4ncccc4s3)ccc2o1 [Example 114, Benzyl-methyl-[5-(thiazolo[4,5-b]pyridin-2-yloxy)-benzofuran-2-ylmethyl]-amine]"
21,38,"CC(=O)NC1CCN(Cc2coc3cc(Oc4nc5ccccc5s4)ccc23)CC1 [Example 180, N-{1-[6-(Benzothiazol-2-yloxy)-benzofuran-3-ylmethyl]-piperidin-4-yl}-acetamide]"
31,72,"CC(=O)NC1CCN(Cc2coc3cc(Oc4nc5ncc(F)cc5s4)ccc23)CC1 [Example 255, N-{1-[6-(6-Fluoro-thiazolo[4,5-b]pyridin-2-yloxy)-benzofuran-3-ylmethyl]-piperidin-4-yl}-acetamide formate]"
80,151,"CC(=O)N1CC2CN(Cc3cc4ccc(Oc5nc6ncccc6s5)cc4o3)CC2C1 (stereo not shown) [Example 195, 1-{5-[6-(Thiazolo[4,5-b]pyridin-2-yloxy)-benzofuran-2-ylmethyl]-hexahydro-pyrrolo[3,4-c]pyrrol-2-yl}-ethanone]"
20,640,"COC(=O)CC1CCN(Cc2c[nH]c3cc(Oc4nc5ccccc5s4)ccc23)CC1 [Example 141, {1-[6-(Benzothiazol-2-yloxy)-1H-indol-3-ylmethyl]-piperidin-4-yl}-acetic acid methyl ester]"
8,190,"O=C(c1ccoc1)N1CC2CN(Cc3coc4cc(Oc5nc6ncccc6s5)ccc34)CC2C1 (stereo not shown) [Example 359, Furan-3-yl-{5-[6-(thiazolo[4,5-b]pyridin-2-yloxy)-benzofuran-3-ylmethyl]-hexahydro-pyrrolo[3,4-c]pyrrol-2-yl}-methanone]"
8,204,"CC(=O)NC1CCN(Cc2c[nH]c3cc(Oc4nc5ccccc5s4)ccc23)CC1 [Example 53, N-{1-[6-(Benzothiazol-2-yloxy)-1H-indol-3-ylmethyl]-piperidin-4-yl}-acetamide]"
18,260,"O=C(c1cnccn1)N1C[C@@H]2C[C@H]1CN2Cc1coc2cc(Oc3nc4ncccc4s3)ccc12 [Example 356, (1S,4S)-Pyrazin-2-yl-{5-[6-(thiazolo[4,5-b]pyridin-2-yloxy)-benzofuran-3-ylmethyl]-2,5-diaza-bicyclo[2.2.1]hept-2-yl}-methanone]"
54,1060,"c1ccc2c(c1)CN(Cc1coc3cc(Oc4nc5ncccc5s4)ccc13)C2 [Example 331, 2-[3-(1,3-Dihydro-isoindol-2-ylmethyl)-benzofuran-6-yloxy]-thiazolo[4,5-b]pyridine]"
55,188,"c1ccc2sc(Oc3cnc4c(CN5CCCCC5)c[nH]c4c3)nc2c1 [Example 31, 2-(3-Piperidin-1-ylmethyl-1H-pyrrolo[3,2-b]pyridin-6-yloxy)-benzothiazole]"
13,85,"O=C(c1coc2cc(Oc3nc4ncccc4s3)ccc12)N1CCC(F)CC1 [Example 376, (4-Fluoro-piperidin-1-yl)-[6-(thiazolo[4,5-b]pyridin-2-yloxy)-benzofuran-3-yl]-methanone]"
9,24,"CS(=O)(=O)N1CCCN(Cc2coc3cc(Oc4nc5ncccc5s4)ccc23)CC1 [Example 247, 2-[3-(4-Methanesulfonyl-[1,4]diazepan-1-ylmethyl)-benzofuran-6-yloxy]-thiazolo[4,5-b]pyridine]"
2,94,"O=c1[nH]ncn1C1CCN(Cc2coc3cc(Oc4nc5ncccc5s4)ccc23)CC1 [Example 351, 4-{1-[6-(Thiazolo[4,5-b]pyridin-2-yloxy)-benzofuran-3-ylmethyl]-piperidin-4-yl}-2,4-dihydro-[1,2,4]triazol-3-one]"
17,87,"c1cnc2nc(Oc3ccc4cc(CN5CCCCC5)[nH]c4c3)sc2c1 [Example 71, 2-(2-Piperidin-1-ylmethyl-1H-indol-6-yloxy)-thiazolo[4,5-b]pyridine]"
13,300,"O=C1Cc2ccccc2N1Cc1coc2cc(Oc3nc4ncccc4s3)ccc12 [Example 399, 1-[6-(Thiazolo[4,5-b]pyridin-2-yloxy)-benzofuran-3-ylmethyl]-1,3-dihydro-indol-2-one]"
16,230,"O=C1CN(Cc2coc3cc(Oc4nc5ncccc5s4)ccc23)CCN1 [Example 342, 4-[6-(Thiazolo[4,5-b]pyridin-2-yloxy)-benzofuran-3-ylmethyl]-piperazin-2-one]"
9.7,171,"CC(C)(C)OC(=O)NC1CCN(Cc2c[nH]c3cc(Oc4nc5ccccc5s4)ccc23)CC1 [Example 145, {1-[6-(Benzothiazol-2-yloxy)-1H-indol-3-ylmethyl]-piperidin-4-yl}-carbamic acid tert-butyl ester]"
21,120,"c1cnc2nc(Oc3ccc4c(CN5CCN6CCCC6C5)coc4c3)sc2c1 (stereo not shown) [Example 326, 2-[3-(Hexahydro-pyrrolo[1,2-a]pyrazin-2-ylmethyl)-benzofuran-6-yloxy]-thiazolo[4,5-b]pyridine]"
7,35,"CC(=O)N1CCN(C(=O)c2coc3cc(Oc4nc5ncccc5s4)ccc23)CC1 [Example 380, 1-{4-[6-(Thiazolo[4,5-b]pyridin-2-yloxy)-benzofuran-3-carbonyl]-piperazin-1-yl}-ethanone]"
51,400,"CS(=O)(=O)C1CCN(Cc2cc3cc(Oc4nc5ncccc5s4)ccc3o2)CC1 [Example 92, 2-[2-(4-Methanesulfonyl-piperidin-1-ylmethyl)-benzofuran-5-yloxy]-thiazolo[4,5-b]pyridine]"
3,17,"c1cnc2nc(Oc3ccc4c(CN5CCCCC5)c[nH]c4c3)sc2c1 [Example 16, 2-(3-Piperidin-1-ylmethyl-1H-indol-6-yloxy)-thiazolo[4,5-b]pyridine]"
6,80,"CS(=O)(=O)N1CCN(Cc2coc3cc(Oc4nc5ncccc5s4)ccc23)CC1 [Example 243, 2-[3-(4-Methanesulfonyl-piperazin-1-ylmethyl)-benzofuran-6-yloxy]-thiazolo[4,5-b]pyridine]"
40,51,"c1ccc(CCNCc2coc3cc(Oc4nc5ncccc5s4)ccc23)cc1 [Example 321, Phenethyl-[6-(thiazolo[4,5-b]pyridin-2-yloxy)-benzofuran-3-ylmethyl]-amine formate]"

Structure (SMILES),IC50 [1] [nM],IC50 [2] [nM]
"CC(=O)N[C@H]1C[C@H]2CC[C@@H](C1)N2Cc1cc2ccc(Oc3nc4ccccc4s3)cc2[nH]1 [Example 70, meso-endo-N-{8-[6-(Benzothiazol-2-yloxy)-1H-indol-2-ylmethyl]-8-aza-bicyclo[3.2.1]oct-3-yl}-acetamide]",1,76
"NC(=O)N[C@H]1C[C@H]2CC[C@@H](C1)N2Cc1cc2ccc(Oc3nc4ncccc4s3)cc2o1 [Example 172, meso-endo-{8-[6-(Thiazolo[4,5-b]pyridin-2-yloxy)-benzofuran-2-ylmethyl]-8-aza-bicyclo[3.2.1]oct-3-yl}-urea]",9,230
"CC(=O)N1C[C@H]2CC[C@@H](C1)N2Cc1cc2ccc(Oc3nc4cnccc4s3)cc2o1 [Example 202, meso-1-{8-[6-(Thiazolo[4,5-c]pyridin-2-yloxy)-benzofuran-2-ylmethyl]-3,8-diaza-bicyclo[3.2.1]oct-3-yl}ethanone]",1520,2700
